Each structure is given as a SMILES string.

This note sets out measurements from paper PMC3502260, “Plasmodium serine hydroxymethyltransferase as a potential anti-malarial target: inhibition studies using improved methods for enzyme production and assay” (Malaria Journal, 2012).

In test [1] the target is T1, PfSHMT (Plasmodium falciparum, UniProt Q8I566).
T1 construct: gene SHMT; recombinant, expressed in E. coli BL21(DE3) as in an earlier report, purified on Ni-Sepharose; dimer
T1 sequence (Q8I566 1-442): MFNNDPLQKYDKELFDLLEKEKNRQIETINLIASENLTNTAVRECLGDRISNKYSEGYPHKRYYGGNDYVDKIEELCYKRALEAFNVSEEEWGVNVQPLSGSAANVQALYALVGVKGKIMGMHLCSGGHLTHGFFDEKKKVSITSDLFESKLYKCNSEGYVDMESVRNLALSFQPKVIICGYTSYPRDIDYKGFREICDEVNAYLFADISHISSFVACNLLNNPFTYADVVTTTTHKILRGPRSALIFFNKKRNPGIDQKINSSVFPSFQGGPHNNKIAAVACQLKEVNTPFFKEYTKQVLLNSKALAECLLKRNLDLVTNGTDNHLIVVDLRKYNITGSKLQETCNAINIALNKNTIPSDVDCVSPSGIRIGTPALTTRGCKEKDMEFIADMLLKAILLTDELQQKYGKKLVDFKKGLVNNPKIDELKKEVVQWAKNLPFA
In words: SHMT-MTHFD coupled assay, initial rates. The format is biochemical. To be noted: read-out: % inhibition at 0.1 mM.

Test [2] concerns the target T1, PfSHMT. In words: PLP fluorescence quenching. The class given is binding. The conditions noted are these: 10 mM ligand, ~23 μM enzyme, 25 °C, 50 mM HEPES pH 7.
The target in test [3] is T2, PvSHMT (Plasmodium vivax, UniProt A5K8L9).
T2 construct: gene PVX_100730; recombinant, expressed in E. coli BL21(DE3) as in an earlier report; dimer
T2 sequence (A5K8L9 1-442): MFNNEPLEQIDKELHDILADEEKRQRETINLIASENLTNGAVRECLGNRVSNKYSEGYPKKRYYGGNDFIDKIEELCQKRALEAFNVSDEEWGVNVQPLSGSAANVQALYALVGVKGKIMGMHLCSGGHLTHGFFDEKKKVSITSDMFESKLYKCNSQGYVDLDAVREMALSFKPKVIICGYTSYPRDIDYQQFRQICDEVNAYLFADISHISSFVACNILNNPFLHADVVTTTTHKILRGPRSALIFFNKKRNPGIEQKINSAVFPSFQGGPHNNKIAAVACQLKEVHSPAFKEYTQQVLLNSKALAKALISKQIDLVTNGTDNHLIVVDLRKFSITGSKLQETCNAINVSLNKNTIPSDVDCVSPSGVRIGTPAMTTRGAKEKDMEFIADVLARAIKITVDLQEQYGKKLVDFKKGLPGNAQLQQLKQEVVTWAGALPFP
In words: PLP fluorescence quenching. To be noted: 10 mM ligand, ~23 μM enzyme, 25 °C, 50 mM HEPES pH 7. The format is binding.

Test [4] concerns the target T1, PfSHMT. In words: time-dependent inactivation, SHMT-MTHFD coupled assay. The class given is biochemical. To be noted: covalent; time-dependent inactivation by reaction with PLP; preincubation 5-30 min; 25 °C, 50 mM HEPES pH 7.
The target in test [5] is T2, PvSHMT. Described as above. The format is biochemical. The conditions noted are these: covalent; time-dependent inactivation by reaction with PLP; preincubation 5-30 min; 25 °C, 50 mM HEPES pH 7.
Test [6] has as its target T2, PvSHMT. Description: SHMT-MTHFD coupled assay, initial rates. The class given is biochemical. To be noted: read-out: % inhibition at 0.25 mM.

By inhibition is commonly meant how much of the control response was suppressed. As to `CCOc1cc(Cc2cnc(N)nc2N)ccc1OCCCc1ccccc1` [CT-55-59-42], the inhibition at 100 µM in test [1] turned out to be 40%.
Turning to `NCC(=O)O` [glycine], the PLP fluorescence quenching entry is “for PfSHMT the binding of glycine caused the largest decrease in fluorescence intensity” in test [2]; “the fluorescence signal of Pf- and PvSHMT was quenched” in test [3].
Consider `C[C@H](N)C(=O)O` [L-alanine], for which the PLP fluorescence quenching entry was “Upon addition of amino acids (L-, D-serine, L-alanine, and glycine), the fluorescence signal of Pf-” in test [2]; “the fluorescence signal of Pf- and PvSHMT was quenched” in test [3].
`N[C@H](CO)C(=O)O` [D-serine]: the PLP fluorescence quenching entry in test [2] is “Upon addition of amino acids (L-, D-serine, L-alanine, and glycine), the fluorescence signal of Pf-”; in test [3], “the fluorescence signal of Pf- and PvSHMT was quenched”.
Regarding `NNC(N)=S` [thiosemicarbazide], the KI (inactivation) in test [4] stood at 360 ± 70 µM; in test [5], 210 ± 80 µM.
In the case of `N[C@@H](CO)C(=O)O` [L-serine], the PLP fluorescence quenching entry in test [2] is “Upon addition of amino acids (L-, D-serine, L-alanine, and glycine), the fluorescence signal of Pf-”.
On to `CCc1nc(N)nc(N)c1OCCCOc1ccnc2ccccc12` [TV-P-0-113], for which, in test [6], the inhibition at 250 µM amounted to 40%.
For `CCCCOc1cc(Cc2cnc(N)nc2N)ccc1OCc1cc(OC)c(OC)c(OC)c1` [CT-57-59-38], in test [1], the inhibition at 100 µM is 40%.
